Measurements from patent US20160145247A1, “Aminomethyl-Biaryl Derivatives Complement Factor D inhibitors and uses thereof” (NOVARTIS AG, priority 2013, published 2016).

biological target: T1, factor D (Homo sapiens, UniProt P00746); test: factor D inhibition assay of Biological Example 2; format: biochemical
T1 construct: made in house; host or cells: E. coli
T1 sequence (P00746 26-253): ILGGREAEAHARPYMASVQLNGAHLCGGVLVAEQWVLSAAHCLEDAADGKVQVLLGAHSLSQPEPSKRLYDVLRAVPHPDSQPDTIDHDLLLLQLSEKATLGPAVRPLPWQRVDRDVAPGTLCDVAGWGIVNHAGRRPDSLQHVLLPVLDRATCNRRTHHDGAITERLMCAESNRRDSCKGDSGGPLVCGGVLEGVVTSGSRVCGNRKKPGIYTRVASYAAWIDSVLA

| IC50 [µM] | SMILES |
| --- | --- |
| 0.041 | N[C@H](CO)c1cc(F)cc(-c2cccc(COc3ccccc3CC(=O)O)c2)c1 [Example 190-A] |
| 0.013 | N[C@H](CCO)c1cccc(-c2cccc(COc3ccccc3CC(=O)O)c2)c1F [Example 190-J] |
| 0.044 | C[C@@H](N)c1cccc(-c2cccc(N(C)Cc3ccccc3CC(=O)O)c2)c1F [Example 220-D, (R)-2-(2-(((3′-(1-aminoethyl)-2′-fluoro-[1,1′-biphenyl]-3-yl)(methyl)amino)methyl)phenyl)acetic acid] |
| 1.21 | CC[C@@H](N)c1cccc(-c2cccc(COc3ccccc3CC(=O)O)c2)c1 [Example 190-C] |
| 0.239 | N[C@H](CC1CC1)c1cccc(-c2cccc(COc3ccccc3CC(=O)O)c2)c1 [Example 196-I] |
| 0.113 | CCC[C@@H](N)c1cccc(-c2cc(COc3ccccc3CC(=O)O)cc(NCCOC)c2)c1 [Example 201, (R)-2-(2-((3′-(1-Aminobutyl)-5-((2-methoxyethyl)amino)-[1,1′-biphenyl]-3-yl)methoxy)phenyl)acetic acid] |
| 0.005 | CCc1ccc(CC(=O)O)c(OCc2cccc(-c3cccc(CN)c3)c2)c1 [Example 293, 2-(2-((3′-(aminomethyl)-[1,1′-biphenyl]-3-yl)methoxy)-4-ethylphenyl)acetic acid] |
| 0.015 | C[C@@H](N)c1cccc(-c2cc(COc3ccccc3CC(=O)O)cc(OCC3CCCCO3)c2)c1F (stereo partly drawn) [Example 264, 2-(2-((3′-((R)-1-aminoethyl)-2′-fluoro-5-((tetrahydro-2H-pyran-2-yl)methoxy)-[1,1′-biphenyl]-3-yl)methoxy)phenyl)acetic acid] |
| 4.03 | NCc1cccc(-c2cccc(COc3ccc(C(N)=O)cc3CC(=O)O)c2)c1 [Example 294-G] |
| 0.14 | C[C@@H](N)c1cccc(-c2cc(CCC3CCOCC3)cc(COc3ccccc3CC(=O)O)c2)c1F [Example 248, (R)-2-(2-((3′-(1-aminoethyl)-2′-fluoro-5-(2-(tetrahydro-2H-pyran-4-yl)ethyl)-[1,1′-biphenyl]-3-yl)methoxy)phenyl)acetic acid] |
| 0.158 | C[C@@H](N)c1cccc(-c2cc(COc3ccccc3CC(=O)O)cc(S(C)(=O)=O)c2)c1 [Example 251, (R)-2-(2-((3′-(1-aminoethyl)-5-(methylsulfonyl)-[1,1′-biphenyl]-3-yl)methoxy)phenyl)acetic acid] |
| 0.018 | C[C@@H](N)c1cccc(-c2cc(COc3ccccc3CC(=O)O)cc(OCC3CCOCC3)c2)c1F [Example 214-D] |
| 0.004 | Cn1cc(-c2cc(COc3ccccc3CC(=O)O)cc(-c3cccc(CN)c3)c2)cn1 [Example 208-H] |
| 0.005 | CC(C)n1cc(-c2cc(COc3ccccc3CC(=O)O)cc(-c3cccc(CN)c3)c2)cn1 [Example 209-C] |
| 0.029 | CC(Oc1ccccc1CC(=O)O)c1cccc(-c2cccc(CN)c2F)c1 (racemic) [Example 183, (±)-2-(2-(1-(3′-(Aminomethyl)-2′-fluoro-[1,1′-biphenyl]-3-yl)ethoxy)phenyl)acetic acid] |
| 0.981 | C[C@H](O)[C@@H](N)c1cccc(-c2cccc(COc3ccccc3CC(=O)O)c2)c1 [Example 190-D] |
| 0.006 | C[C@H](N)c1cccc(-c2cc(COc3ccccc3CC(=O)O)cc(NCC3CCCC3)c2)c1F [Example 216-C] |
| 0.107 | CC(=O)N(C)c1cc(COc2ccccc2CC(=O)O)cc(-c2cccc([C@@H](C)N)c2F)c1 [Example 229, (R)-2-(2-((3′-(1-aminoethyl)-2′-fluoro-5-(N-methylacetamido)-[1,1′-biphenyl]-3-yl)methoxy)phenyl)acetic acid] |
| 0.023 | NCc1cccc(-c2ccc(F)c(COc3ccccc3CC(=O)O)c2)c1 [Example 166, 2-(2-((3′-(Aminomethyl)-4-fluoro-[1,1′-biphenyl]-3-yl)methoxy)phenyl)acetic acid] |
| 0.006 | C[C@@H](N)c1cccc(-c2cc(C#Cc3ccn(C)n3)cc(COc3ccccc3CC(=O)O)c2)c1F [Example 218-G, (R)-2-(2-((3′-(1-Aminoethyl)-2′-fluoro-5-((1-methyl-1H-pyrazol-3-yl)ethynyl)-[1,1′-biphenyl]-3-yl)methoxy)phenyl)acetic acid] |
| 0.007 | COc1cc(COc2ccccc2CC(=O)O)cc(-c2cccc([C@@H](C)N)c2F)c1 [Example 214-I] |
| 0.013 | C[C@@H](N)c1cccc(-c2cc(COc3ccccc3CC(=O)O)c3c(c2)OCO3)c1F [Example 253-E, (R)-2-(2-((6-(3-(1-Aminoethyl)-2-fluorophenyl)benzo[d][1,3]dioxol-4-yl)methoxy)phenyl)acetic acid] |
| 0.009 | CC(C)CNc1cc(COc2ccccc2CC(=O)O)cc(-c2cccc([C@@H](C)N)c2F)c1 [Example 224-B, (R)-2-(2-((3′-(1-aminoethyl)-2′-fluoro-5-(isobutylamino)-[1,1′-biphenyl]-3-yl)methoxy)phenyl)acetic acid] |

Further lines, the compound ahead of its results:

| SMILES | IC50 [µM] |
| --- | --- |
| C[C@@H](N)c1cccc(-c2cc(OC[C@@H]3CCCO3)cc(C(=O)Nc3ccccc3CC(=O)O)c2)c1 [Example 80-C, 2-(2-(3′-((R)-1-Aminoethyl)-5-(((S)-tetrahydrofuran-2-yl)methoxy)-[1,1′-biphenyl]-3-ylcarboxamido)phenyl)acetic acid] | 0.143 |
| NCc1cncc(-c2cc(COc3ccccc3CC(=O)O)cc(OC[C@H]3CCCO3)c2)c1 [Example 138-C] | 1.52 |
| Cc1cc(COc2ccccc2CC(=O)O)cc(-c2cccc([C@H](N)CO)c2)c1 [Example 112-B, (S)-2-(2-((3′-(1-Amino-2-hydroxyethyl)-5-methyl-[1,1′-biphenyl]-3-yl)methoxy)phenyl)acetic acid] | 0.007 |
| N[C@H](CO)c1cccc(-c2cc(COc3ccccc3CC(=O)O)cc(C3CC3)c2)c1 [Example 109-B, (S)-2-(2-((3′-(1-Amino-2-hydroxyethyl)-5-cyclopropyl-[1,1′-biphenyl]-3-yl)methoxy)phenyl)acetic acid] | 0.022 |
| N#Cc1cc(COc2ccccc2CC(=O)O)cc(-c2cccc(CN)c2)c1 [Example 113-B, 2-(2-((3′-(Aminomethyl)-5-cyano-[1,1′-biphenyl]-3-yl)methoxy)phenyl)acetic acid] | 0.03 |
| NCc1cc(F)cc(-c2cccc(C(=O)Nc3cc(F)ccc3CC(=O)O)c2)c1 [Example 21-I] | 0.469 |
| NCc1cc(F)cc(-c2cc(NCc3ccncc3)cc(C(=O)Nc3ccccc3CC(=O)O)c2)c1 [Example 14-B] | 0.011 |
| CCC[C@@H](N)c1cccc(-c2cc(COC)cc(COc3ccccc3CC(=O)O)c2)c1 [Example 118, (R)-2-(2-((3′-(1-Aminobutyl)-5-(methoxymethyl)-[1,1′-biphenyl]-3-yl)methoxy)phenyl)acetic acid] | 0.067 |
| CNc1cc(C(=O)Nc2ccccc2CC(=O)O)nc(-c2cccc(CN)c2)c1 [Example 46, 2-(2-(6-(3-(aminomethyl)phenyl)-4-(methylamino)picolinamido)phenyl)acetic acid] | 0.006 |
| NCc1cccc(-c2ccc3c(c2)C(Oc2ccccc2CC(=O)O)CCO3)c1 (single isomer, unassigned) [177 b) (tr = 8.8 min), (−) or (+)-2-(2-((6-(3-(aminomethyl)phenyl)chroman-4-yl)oxy)phenyl)acetic acid] | 0.18 |
| NCc1cc(F)cc(-c2cc(OCc3ncccn3)cc(C(=O)Nc3ccccc3CC(=O)O)c2)c1 [Example 68, 2-(2-(3′-(Aminomethyl)-5′-fluoro-5-(pyrimidin-2-ylmethoxy)-[1,1′-biphenyl]-3-ylcarboxamido)phenyl)acetic acid] | 0.02 |
| COCc1cc(COc2ccccc2CC(=O)O)cc(-c2cccc([C@H](C)N)c2)c1 [Example 120-K] | 0.19 |
| COCc1cc(COc2ccccc2CC(=O)O)cc(-c2cccc([C@H](C)N)c2F)c1 [Example 120-I] | 0.025 |
| C[C@@H](N)c1cc(-c2cccc(COc3ccccc3CC(=O)O)c2)ccn1 [Example 142-D] | 0.346 |
| COCCNc1cc(C(=O)Nc2ccccc2CC(=O)O)cc(-c2cc(F)cc(CN)c2)c1 [Example 14-E] | 0.01 |
| NC(=O)Cc1ccccc1OCc1cccc(-c2cccc([C@H](N)CO)c2)c1 [Example 146-C, (S)-2-(2-((3′-(1-Amino-2-hydroxyethyl)-[1,1′-biphenyl]-3-yl)methoxy)phenyl)acetamide] | 18.4 |
| NCc1cccc(-c2ccc3c(c2)C(Oc2ccccc2CC(=O)O)CC3)c1 (racemic) [Example 162, (±)-2-(2-((6-(3-(Aminomethyl)phenyl)-2,3-dihydro-1H-inden-1-yl)oxy)phenyl)acetic acid] | 0.002 |
| CCC(=O)Nc1cc(C(=O)Nc2ccccc2CC(=O)O)cc(-c2cc(F)cc(CN)c2)c1 [Example 96-D, 2-(2-(3′-(Aminomethyl)-5′-fluoro-5-propionamido-[1,1′-biphenyl]-3-ylcarboxamido)phenyl)acetic acid] | 0.021 |
| NCc1cccc(-c2cc(COc3ccccc3CC(=O)O)cc(COc3ccccc3CC(=O)O)c2)c1 [Example 116-C] | 0.004 |
| CC(O)c1cc(COc2ccccc2CC(=O)O)cc(-c2cccc([C@H](C)N)c2)c1 (some centres unmarked) [Example 120-L] | 0.28 |
| N[C@H](CO)c1cccc(-c2cccc(COc3c(F)cccc3CC(=O)O)c2)c1 [Example 75-B, (S)-2-(2-((3′-(1-Amino-2-hydroxyethyl)-[1,1′-biphenyl]-3-yl)methoxy)-3-fluorophenyl)acetic acid] | 0.026 |
| NCc1cccc(-c2cc(NC3CC3)cc(C(=O)Nc3ccccc3CC(=O)O)n2)c1 [Example 50, 2-(2-(6-(3-(aminomethyl)phenyl)-4-(cyclopropylamino)picolinamido)phenyl)acetic acid] | 0.002 |
| Nc1cc(-c2cccc([C@H](N)CO)c2)cc(COc2ccccc2CC(=O)O)c1F [155 a), (S)-2-(2-((5-Amino-3′-(1-amino-2-hydroxyethyl)-4-fluoro-[1,1′-biphenyl]-3-yl)methoxy)phenyl)acetic acid] | 0.003 |
| N[C@H](CO)c1cccc(-c2cc(COc3ccccc3CC(=O)O)cc(C(O)C(F)(F)F)c2)c1 (single isomer, unassigned) [116-G b) (tr = 2.1 min)] | 0.011 |
